A short description of this data set: Estimated concentration in DMSO-d6 after shaking an excess at 38° C., cooling to 22° C. and decantation (1H-NMR integrals). It is filed as physicochemical. Particulars: organic solvent or mixture, thermodynamic from solid, Composition Example 13, excess shaken at 38° C. for 15 min, cooled to 22° C., decanted, no additive, read-out: concentration in the solution (limit of solubility). The method, then:
A mixture of PEth-16:0/18:1-NMe3 (15 mg), dimethyl sulfone (0.4 mg) and DMSO-d6 (0.75 ml) was shaken at 38° C. for 15 min. The mixture was then allowed to reach ambient temperature (22° C.) and kept at that temperature for 1 h. The solution was then separated from a glassy precipitate by decantation and transferred to an NMR-tube. The concentration of PEth-16:0/18:1-NMe3 in the solution was estimated to be about 3 mg/ml by comparison of ^1H-NMR integrals in the ^1H-NMR spectrum (FIG. 7) of signals from PEth-16:0/18:1-NMe3 with the signal of dimethyl sulfone.

SMILES strings stand for the structures. Structures can show the parent of a compound that is named as a salt.

As for `CCCCCCCC/C=C\CCCCCCCC(=O)O[C@H](COC(=O)CCCCCCCCCCCCCCC)COP(=O)(O)OCC` [PEth-16:0/18:1-NMe3, 1-Palmitoyl-2-oleoyl-3-ethoxyhydroxyphosphinyl-sn-glycerol trimethylammonium salt], the solubility at 15 min was around 3000 µg/mL.
